Test results: PubChem BioAssay AID2060493 (Molecular Pharmacology Branch, DTP, NCI, 2025)

Test system: 616215-338-R-J1-PDC tumor spheroids, viability
Assay: Anticancer human tumor 616215-338-R-J1-PDC patient-derived colon adenocarcinoma cell line growth inhibition [GQUAD]
Conditions: spheroids with HUVEC and MSC; for IC50: curve of first compound; for viability, T/C: stronger effect = lower value; active = viability on the fitted dose curve at most 10% of control; inactive = the rest
Summary of the method: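 Tumor cells were grown as complex spheroids with HUVEC endothelial cells and mesenchymal stem cells as stroma. G-quadruplex stabilizers were combined with targeted agents over half-log dilutions from near the clinical Cmax, or from 10 microM.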

[1] = second compound 0.0316 µM, first compound 0.0316 µM
[2] = second compound 0.0316 µM, first compound 0.316 µM
[3] = second compound 0.1 µM, first compound 0.0316 µM
[4] = second compound 0.1 µM, first compound 0.316 µM
[5] = second compound 0.316 µM, first compound 0.0316 µM
[6] = second compound 0.316 µM, first compound 0.316 µM
[7] = second compound 1 µM, first compound 0.0316 µM
[8] = second compound 1 µM, first compound 0.316 µM
[9] = second compound 3.16 µM, first compound 0.0316 µM
[10] = second compound 3.16 µM, first compound 0.316 µM
[11] = second compound 10 µM, first compound 0.0316 µM
[12] = second compound 10 µM, first compound 0.316 µM
[13] = second compound 0.0316 µM, first compound 0.1 µM
[14] = second compound 0.0316 µM, first compound 1 µM
[15] = second compound 0.0316 µM, first compound 3.16 µM
[16] = second compound 0.0316 µM, first compound 10 µM
[17] = second compound 0.1 µM, first compound 0.1 µM
[18] = second compound 0.1 µM, first compound 1 µM
[19] = second compound 0.1 µM, first compound 3.16 µM
[20] = second compound 0.1 µM, first compound 10 µM
[21] = second compound 0.316 µM, first compound 0.1 µM
[22] = second compound 0.316 µM, first compound 1 µM
[23] = second compound 0.316 µM, first compound 3.16 µM
[24] = second compound 0.316 µM, first compound 10 µM
[25] = second compound 1 µM, first compound 0.1 µM
[26] = second compound 1 µM, first compound 1 µM
[27] = second compound 1 µM, first compound 3.16 µM
[28] = second compound 1 µM, first compound 10 µM
[29] = second compound 3.16 µM, first compound 0.1 µM
[30] = second compound 3.16 µM, first compound 1 µM
[31] = second compound 3.16 µM, first compound 3.16 µM
[32] = second compound 3.16 µM, first compound 10 µM
[33] = second compound 10 µM, first compound 0.1 µM
[34] = second compound 10 µM, first compound 1 µM
[35] = second compound 10 µM, first compound 3.16 µM
[36] = second compound 10 µM, first compound 10 µM
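Note: spheroids exposed to agents for 7 days before readout.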
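Throughout, for viability, T/C: percent viability relative to DMSO vehicle control wells taken as 100%.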

Cc1[nH]c2ccccc2c1CCNCc1ccc(/C=C/C(=O)NO)cc1 + CN(C)c1ccc(Nc2c3ccc(NC(=O)CCN4CCCC4)cc3nc3cc(NC(=O)CCN4CCCC4)ccc23)cc1
0.0661 µM: IC50 (second compound 10 µM)
inactive: viability, T/C (second compound 0.0316 µM, first compound 0.000999 µM) 104% | viability, T/C (second compound 0.0316 µM, first compound 0.00316 µM) 102% | viability, T/C (second compound 0.0316 µM, first compound 0.00999 µM) 104% | viability, T/C [1] 107% | viability, T/C (second compound 0.0316 µM, first compound 0.0999 µM) 83.1% | viability, T/C [2] 14.2% | viability, T/C (second compound 0.1 µM, first compound 0.000999 µM) 93.1% | viability, T/C (second compound 0.1 µM, first compound 0.00316 µM) 99.5% | viability, T/C (second compound 0.1 µM, first compound 0.00999 µM) 104% | viability, T/C [3] 88.8% | viability, T/C (second compound 0.1 µM, first compound 0.0999 µM) 61.2% | viability, T/C [4] 15.8% | viability, T/C (second compound 0.316 µM, first compound 0.000999 µM) 101% | viability, T/C (second compound 0.316 µM, first compound 0.00316 µM) 103% | viability, T/C (second compound 0.316 µM, first compound 0.00999 µM) 113% | viability, T/C [5] 104% | viability, T/C (second compound 0.316 µM, first compound 0.0999 µM) 62.7% | viability, T/C [6] 12.3% | viability, T/C (second compound 1 µM, first compound 0.000999 µM) 113% | viability, T/C (second compound 1 µM, first compound 0.00316 µM) 93.8% | viability, T/C (second compound 1 µM, first compound 0.00999 µM) 105% | viability, T/C [7] 86% | viability, T/C (second compound 1 µM, first compound 0.0999 µM) 57% | viability, T/C (second compound 3.16 µM, first compound 0.000999 µM) 102% | viability, T/C (second compound 3.16 µM, first compound 0.00316 µM) 96.8% | viability, T/C (second compound 3.16 µM, first compound 0.00999 µM) 87.8% | viability, T/C [9] 92% | viability, T/C (second compound 3.16 µM, first compound 0.0999 µM) 46.2% | viability, T/C [10] 12.2% | viability, T/C (second compound 10 µM, first compound 0.000999 µM) 92.9% | viability, T/C (second compound 10 µM, first compound 0.00316 µM) 93% | viability, T/C (second compound 10 µM, first compound 0.00999 µM) 77.7% | viability, T/C [11] 70.3% | viability, T/C (second compound 10 µM, first compound 0.0999 µM) 39.3%
0.132 µM: IC50 (second compound 0.1 µM)
0.0908 µM: IC50 (second compound 3.16 µM)
0.174 µM: IC50 (second compound 0.0316 µM)
0.118 µM: IC50 (second compound 1 µM)
0.134 µM: IC50 (second compound 0.316 µM)
active: viability, T/C [8] 7.13% | viability, T/C [12] 0.37%

CCCS(=O)(=O)Nc1ccc(F)c(C(=O)c2c[nH]c3ncc(-c4ccc(Cl)cc4)cc23)c1F + Cc1cnc(CNC(=O)c2c(=O)c3ccc(N4CCCN(C)CC4)nc3n3c2sc2ccccc23)cn1
active: viability, T/C [16] 3.94%
2.1 µM: IC50 (second compound 0.1 µM)
< 0.0316 µM: IC50 (second compound 0.316 µM) | IC50 (second compound 1 µM) | IC50 (second compound 3.16 µM) | IC50 (second compound 10 µM)
inactive: viability, T/C [1] 107% | viability, T/C [13] 110% | viability, T/C [2] 113% | viability, T/C [14] 104% | viability, T/C [15] 90% | viability, T/C [3] 58.2% | viability, T/C [17] 59% | viability, T/C [4] 56% | viability, T/C [18] 48.5% | viability, T/C [19] 49.9% | viability, T/C [20] 10.5% | viability, T/C [5] 34.4% | viability, T/C [21] 43.5% | viability, T/C [6] 38.5% | viability, T/C [22] 38.4% | viability, T/C [23] 33.1% | viability, T/C [24] 8.31% | viability, T/C [7] 31% | viability, T/C [25] 34.2% | viability, T/C [8] 36.7% | viability, T/C [26] 35.9% | viability, T/C [27] 37.1% | viability, T/C [28] 4.42% | viability, T/C [9] 31.1% | viability, T/C [29] 18.5% | viability, T/C [10] 32.4% | viability, T/C [30] 23% | viability, T/C [31] 27.7% | viability, T/C [32] 0.11% | viability, T/C [11] 15.7% | viability, T/C [33] 21.4% | viability, T/C [12] 27.6% | viability, T/C [34] 19.2% | viability, T/C [35] 23.9% | viability, T/C [36] 0.17%
5.39 µM: IC50 (second compound 0.0316 µM)

C=CCn1c(=O)c2cnc(Nc3ccc(N4CCN(C)CC4)cc3)nc2n1-c1cccc(C(C)(C)O)n1 + Cc1cnc(CNC(=O)c2c(=O)c3ccc(N4CCCN(C)CC4)nc3n3c2sc2ccccc23)cn1
0.255 µM: IC50 (second compound 0.0316 µM)
0.131 µM: IC50 (second compound 0.1 µM)
< 0.0316 µM: IC50 (second compound 0.316 µM) | IC50 (second compound 1 µM) | IC50 (second compound 3.16 µM) | IC50 (second compound 10 µM)
inactive: viability, T/C [1] 110% | viability, T/C [13] 71.4% | viability, T/C [2] 44.4% | viability, T/C [14] 32.2% | viability, T/C [15] 23.4% | viability, T/C [16] 21.9% | viability, T/C [3] 57.2% | viability, T/C [17] 55% | viability, T/C [4] 40.1% | viability, T/C [18] 38.3% | viability, T/C [19] 24.4% | viability, T/C [20] 17.8% | viability, T/C [5] 44.1% | viability, T/C [21] 39.4% | viability, T/C [6] 30% | viability, T/C [22] 30.2% | viability, T/C [23] 27.7% | viability, T/C [24] 21% | viability, T/C [7] 29.8% | viability, T/C [25] 30.8% | viability, T/C [8] 21% | viability, T/C [26] 21.9% | viability, T/C [27] 25.2% | viability, T/C [28] 17.3% | viability, T/C [9] 31.2% | viability, T/C [29] 31.8% | viability, T/C [10] 19.8% | viability, T/C [30] 17.5% | viability, T/C [31] 12.2% | viability, T/C [32] 16.8% | viability, T/C [11] 25.1% | viability, T/C [33] 26.2% | viability, T/C [12] 13.2% | viability, T/C [34] 15.5% | viability, T/C [35] 16.8% | viability, T/C [36] 15.5%
